{
  "source": "patent US5158770A",
  "about": "“Aqueous solution containing ginkgo leaf extract” (Freund Industrial Co., Ltd., priority 1989, dated 1992)",
  "key": {"[1]": {"assay": "Solubility Test-1: dissolution of ginkgo leaf extract dry powder in aqueous solution of the compound", "assay_type": "physicochemical", "parameters": "key: .largecircle.: dissolved to form a transparent aqueous solution; X: insoluble", "conditions": "5 g compound in 100 ml water at 20° C., 10 g ginkgo leaf extract, shaken 10 minutes", "description": "To each aqueous solution was added 10 g of dry powder of the ginkgo leaf extract and shaken for 10 minutes to observe the dissolution state."}, "[2]": {"assay": "physchem", "conditions": "water"}, "[3]": {"assay": "Solubility of the organic/inorganic compound in water"}},
  "note": "Structures can show the parent of a compound that is named as a salt.",
  "data": [
    {"smiles": "OCC(O)CO", "note": "[Glycerin]", "values": [
      {"measurement": "Dissolution state", "setting": "[1]", "value": "X"}
    ]},
    {"smiles": "CC(C)(CO)[C@@H](O)C(=O)NCCC(=O)O", "note": "[Calcium pantothenate]", "values": [
      {"measurement": "Dissolution state", "setting": "[1]", "value": ".largecircle."}
    ]},
    {"smiles": "CC(C)[C@H](N)C(=O)O", "note": "[Valine]", "values": [
      {"measurement": "solubility", "setting": "[2]", "value": 85, "unit": "mg/mL"}
    ]},
    {"smiles": "NC(N)=O", "note": "[Urea]", "values": [
      {"measurement": "Dissolution state", "setting": "[1]", "value": ".largecircle."}
    ]},
    {"smiles": "N#CN=C(N)N", "note": "[Dicyandiamide]", "values": [
      {"measurement": "Dissolution state", "setting": "[1]", "value": "X"},
      {"measurement": "solubility", "setting": "[2]", "value": 32, "unit": "mg/mL"}
    ]},
    {"smiles": "C[C@@H](O)[C@H](N)C(=O)O", "note": "[Threonine]", "values": [
      {"measurement": "Dissolution state", "setting": "[1]", "value": ".largecircle."}
    ]},
    {"smiles": "OC[C@H]1O[C@@](CO)(O[C@H]2O[C@H](CO)[C@@H](O)[C@H](O)[C@H]2O)[C@@H](O)[C@@H]1O", "note": "[Sucrose]", "values": [
      {"measurement": "Dissolution state", "setting": "[1]", "value": "X"},
      {"measurement": "solubility", "setting": "[2]", "value": 664, "unit": "mg/mL"}
    ]},
    {"smiles": "CCCCCCCCCCCC[N+](C)(C)C.[Cl-]", "note": "[Lauryltrimethylammonium chloride, Lauryltrimethyl-ammonium chloride]", "values": [
      {"measurement": "Dissolution state", "setting": "[1]", "value": ".largecircle."},
      {"measurement": "solubility", "setting": "[2]", "value": 760, "unit": "mg/mL"}
    ]},
    {"smiles": "Cl.N[C@@H](Cc1c[nH]cn1)C(=O)O", "note": "[Histidine hydrochloride]", "values": [
      {"measurement": "solubility", "setting": "[3]", "value": 420, "unit": "mg/mL"}
    ]},
    {"smiles": "CC[C@H](C)[C@H](N)C(=O)O", "note": "[Isoleucine]", "values": [
      {"measurement": "solubility", "setting": "[2]", "value": 38, "unit": "mg/mL"}
    ]},
    {"smiles": "Cc1cc2nc3c(=O)[nH]c(=O)nc-3n(C[C@H](O)[C@H](O)[C@H](O)CO)c2cc1C", "note": "[Riboflavin]", "values": [
      {"measurement": "Dissolution state", "setting": "[1]", "value": "X"},
      {"measurement": "solubility", "setting": "[3]", "value": 0.1, "unit": "mg/mL"}
    ]},
    {"smiles": "Oc1cccc(O)c1O", "note": "[Pyrogallol]", "values": [
      {"measurement": "solubility", "setting": "[2]", "value": 625, "unit": "mg/mL"}
    ]},
    {"smiles": "NCCS(=O)(=O)O", "note": "[Taurine]", "values": [
      {"measurement": "solubility", "setting": "[2]", "value": 90, "unit": "mg/mL"}
    ]},
    {"smiles": "NC(=O)c1cccnc1", "note": "[Nicotinic acid amide]", "values": [
      {"measurement": "Dissolution state", "setting": "[1]", "value": ".largecircle."},
      {"measurement": "solubility", "setting": "[3]", "value": 500, "unit": "mg/mL"}
    ]},
    {"smiles": "CSCC[C@H](N)C(=O)O", "note": "[Methionine]", "values": [
      {"measurement": "Dissolution state", "setting": "[1]", "value": "X"},
      {"measurement": "solubility", "setting": "[3]", "value": 33, "unit": "mg/mL"}
    ]},
    {"smiles": "OC[C@@H](O)[C@@H](O)[C@H](O)[C@@H](O)CO", "note": "[Sorbitol]", "values": [
      {"measurement": "Dissolution state", "setting": "[1]", "value": "X"},
      {"measurement": "solubility", "setting": "[3]", "value": 720, "unit": "mg/mL"}
    ]},
    {"smiles": "Cc1ncc(C[n+]2csc(CCO)c2C)c(N)n1", "note": "[Thiamine hydrochloride]", "values": [
      {"measurement": "Dissolution state", "setting": "[1]", "value": ".largecircle."},
      {"measurement": "solubility", "setting": "[3]", "value": 1000, "unit": "mg/mL"}
    ]},
    {"smiles": "Cc1ncc(CO)c(CO)c1O.Cl", "note": "[Pyridoxine hydrochloride]", "values": [
      {"measurement": "Dissolution state", "setting": "[1]", "value": ".largecircle."},
      {"measurement": "solubility", "setting": "[2]", "value": 190, "unit": "mg/mL"}
    ]},
    {"smiles": "O=C(O)c1cccnc1", "note": "[Nicotinic acid]", "values": [
      {"measurement": "Dissolution state", "setting": "[1]", "value": "X"},
      {"measurement": "solubility", "setting": "[3]", "value": 16, "unit": "mg/mL"}
    ]}
  ]
}
